From PubChem BioAssay AID844 (SRMLSC, 2007)
Active and inactive are the calls of the source. No rule for the calls is given here.

System: MRP1 cells, doxorubicin viability shift, 10 uM compound
Assay: doxorubicin EC50 increase in MRP-1 cells, dose response, cell-based, doxorubicin EC50 shift (AID 844)
Settings: for EC50: measured here: doxorubicin EC50 with compound

Row | Compound | fold increase in Dox EC50 | EC50 [µM]
1 | Cc1cc(/C=C2\SC(=S)NC2=O)c(C)n1C | 1.44 (inactive) | 7.78
2 | Cc1ccc(C(=O)COc2ccccc2-c2ccccc2)cc1C | 0.9 (inactive) | 4.85
3 | Cc1cc(NC(=O)CN2C(=O)S/C(=C\c3ccccc3)C2=O)no1 | 1.03 (inactive) | 5.58
4 | O=C(CSc1ncn[nH]1)Nc1nnc(-c2ccccc2)s1 | 0.58 (inactive) | 3.12
5 | Cc1nn(Cc2c(F)c(F)c(F)c(F)c2F)c(C)c1NC(=O)c1ccc(COc2ccc(F)cc2)o1 | 1 (inactive) | 5.42
6 | O=C(NC1CCCCCC1)c1nnc(Cc2ccc(Cl)cc2)o1 | 0.78 (inactive) | 4.21
7 | Cc1ccc(S(=O)(=O)Nc2nc3ccccc3nc2NCc2ccc3c(c2)OCO3)cc1C | 1.02 (inactive) | 5.49
8 | COCC(=O)Nc1nnc(COc2ccc(Cl)cc2)s1 | 1.44 (inactive) | 7.75
9 | CC(/C=C1\SC(=S)N(CCCC(=O)Nc2ccc(C(=O)O)cc2)C1=O)=C\c1ccccc1 | 0.55 (inactive) | 2.98
10 | CCOc1ccc(-c2nc(C#N)c(NCC(C)C)o2)cc1 | 1.19 (inactive) | 6.4
11 | Cc1cc(/C=C2\NC(=O)N(Cc3ccc(Cl)cc3)C2=O)c(C)n1C | 1.1 (inactive) | 5.93
12 | CCC1SC2=NC(C)=C(C(=O)OCCOC)C(c3ccc(C(=O)OC)cc3)N2C1=O (stereo unspecified) | 0.92 (inactive) | 4.98
13 | COc1ccc(/C=C2/N=C(SC3CCOC3=O)N(c3cccc(OC)c3)C2=O)cc1 (stereo unspecified) | 0.68 (inactive) | 3.67
14 | Brc1cc2c(cc1COc1ccc(-c3nn[nH]n3)cc1)OCO2 | 1.73 | 9.31
15 | CCOc1ccc(NC(=O)CN2C(=O)COc3ccc(Cl)cc32)cc1 | 1.33 (inactive) | 7.19
16 | CCn1c(COc2ccc(C)cc2)nnc1SCc1nc2ccccc2[nH]1 | 0.88 (inactive) | 4.76
17 | O=c1cc(CNc2ccc(Br)cc2)nc2sccn12 | 0.99 (inactive) | 5.37
18 | Cc1ccc(C(=O)CCC(=O)Nc2ccc(Cl)c(S(=O)(=O)Nc3cccc(Cl)c3)c2)cc1 | 1.15 (inactive) | 6.21
19 | O=C(c1cnn2c(C(F)(F)F)cc(-c3cccs3)nc12)N1CCN(C(c2ccccc2)c2ccccc2)CC1 | 0.17 (inactive) | 0.916
20 | COc1ccccc1-c1nnc(SC2CCc3ccccc3NC2=O)s1 (stereo unspecified) | 0.55 (inactive) | 2.98
21 | Cc1cc(C)c(N=Cc2c(O)n(-c3nccs3)c(=O)c3ccccc23)c(C)c1 | 0.29 (inactive) | 1.54
22 | N#C/C(=N\Nc1ccccc1)C(=N)N1CCOCC1 | 1.15 (inactive) | 6.23
23 | CC(OC(=O)c1snc(C(=O)NC2CCCCC2)c1N)C(=O)NC(C)(C)C (stereo unspecified) | 1.1 (inactive) | 5.93
24 | CC(=O)Nc1nc(C)c(Oc2ccc(Cl)cc2Cl)c(=O)[nH]1 | 0.74 (inactive) | 4.01
25 | CCc1nnc(NC(=O)c2ccc(S(=O)(=O)N3CCCCCC3)cc2)s1 | 0.9 (inactive) | 4.88
26 | COc1cc(C)ccc1N(CCCN1C(=O)c2cccc3cccc(c23)C1=O)C(=O)c1cccs1 | 1.13 (inactive) | 6.12
27 | O=C(NCc1ccccc1)C(c1ccc(O)cc1)N(C(=O)Cn1nnc(-c2cccs2)n1)c1ccc2c(c1)OCCO2 (stereo unspecified) | 0.86 (inactive) | 4.66

Row | Compound | fold increase in Dox EC50 | EC50 [µM]
28 | CCOC(=O)c1sc(-c2ccccc2)cc1NC(=O)Nc1ccccc1 | 0.4 (inactive) | 2.16
29 | Cc1ccc(C)c2[nH]c(=O)c(CN(Cc3ccco3)S(=O)(=O)c3ccc4c(c3)OCCO4)cc12 | 0.88 (inactive) | 4.73
30 | O=C(c1ccc(COc2ccc(Cl)cc2)o1)N1N=C(C(F)F)CC1(O)C(F)F (stereo unspecified) | 1.44 (inactive) | 7.77
31 | Cc1ccsc1CNn1cnnc1SCc1ccc(Cl)cc1 | 0.78 (inactive) | 4.22
32 | CCOC(=O)c1sc(-c2ccc(F)cc2)cc1NC(=O)Nc1ccccc1OC | 0.83 (inactive) | 4.5
33 | Cc1cc(Br)ccc1NC(=O)CNC(=O)CN1C(=O)NC2(CCCCCC2)C1=O | 1.34 (inactive) | 7.25
34 | Cc1noc(/C=C/N(C)C)c1S(=O)(=O)N1CCCC(C(=O)N2CCCCC2)C1 (stereo unspecified) | 0.74 (inactive) | 3.98
35 | Cc1ccccc1NC(=O)CC1SC(=O)N(c2ccccc2)C1=O (stereo unspecified) | 1.35 (inactive) | 7.29
36 | CCCCCCn1c(O)c(/C=C2\C=NN=C2c2ccccc2)sc1=S | 0.77 (inactive) | 4.16
37 | O=C1CC(N2CCC(c3nc4ccccc4o3)CC2)C(=O)N1c1cc(Cl)cc(Cl)c1 (stereo unspecified) | 1.36 (inactive) | 7.36
38 | CCN(CC)S(=O)(=O)c1ccc2c(c1)nc(SCn1nnc3ccccc3c1=O)n2CC | 0.52 (inactive) | 2.79
39 | Cc1c(C)n(C)c2ccc(C(=O)NCc3cccs3)cc12 | 1.06 (inactive) | 5.75
40 | O=C(Nc1ccc(F)cc1)c1c(O)c2c(n(Cc3ccccc3)c1=O)CCCC2 | 1.31 (inactive) | 7.07
41 | COC(=O)CCc1c(C)[nH]c(C(=O)OCc2ccccc2)c1C | 0.85 (inactive) | 4.57
42 | O=C(N/N=C/c1ccccn1)c1cc(-c2ccc3ccccc3c2)n[nH]1 | 0.75 (inactive) | 4.04
43 | O=C(Nc1nnc(N2CCCCCC2)s1)c1cc(-c2ccc(Br)cc2)on1 | 0.91 (inactive) | 4.91
44 | COC(=O)C1C(=O)c2c([nH]c(C(=O)OC3CCCCC3)c2C)CC1C (stereo unspecified) | 0.69 (inactive) | 3.74
45 | Cc1ccc(Nc2nnc(-c3ccc(N4CCOCC4)c([N+](=O)[O-])c3)c3ccccc23)cc1 | 0.61 (inactive) | 3.28
46 | O=C(Nc1cccnc1)C1CC(c2ccc(Cl)c(Cl)c2)=NO1 (stereo unspecified) | 1.32 (inactive) | 7.13
47 | C=CCn1c(CNc2ccccc2)nnc1SCC(=O)N/N=C/c1ccccc1O | 0.58 (inactive) | 3.11
48 | Cc1ccc(COc2cccc3c2CCN(Cc2ccc(F)cc2)C3=O)cc1 | 1.02 (inactive) | 5.52
49 | CN(Cc1ccccc1)c1ncnc2c1cnn2-c1ccccc1 | 0.54 (inactive) | 2.94
50 | CCOC(=O)C1=C(C)N=c2s/c(=C\c3ccc(OC(C)=O)cc3)c(=O)n2C1/C=C/c1ccccc1 (stereo unspecified) | 0.34 (inactive) | 1.85
51 | COc1ccc(OC)c(NC(=O)CSc2nnc(CNC(=O)COc3ccc(Cl)cc3)o2)c1 | 1.11 (inactive) | 5.98
52 | CCc1nnc(NC(=O)CCC(=O)N2CCN(Cc3ccc(Cl)cc3)CC2)s1 | 0.76 (inactive) | 4.09
53 | Cc1cccc(C)c1N=Cc1c(O)n(-c2nccs2)c(=O)c2ccccc12 | 0.6 (inactive) | 3.22
